Measured values reported in publication PMC7260336, “Identification of a species-specific aminotransferase in Pediococcus acidilactici capable of forming α-aminobutyrate” (AMB Express, 2020).

Assays:
[1] = target: T1, Aat (recombinant His-tagged aminotransferase) (Pediococcus acidilactici, UniProt E0NE36); test: HPLC of amino acids formed; format: biochemical; conditions: amino acceptor; leucine, AABA or alanine as amino donor, 50 uM pyridoxal 5-phosphate, pH 5.5, 37 °C, 1 h
T1 construct: gene aspC; full length, C-terminal His tag (pEXP5-CT/TOPO), E. coli BL21(DE3), Ni-TED purified; gene about 1200 bp; cloning primers translate to N-terminus MSDKVNA and native C-terminus LKAKRA; locus tag contradictory: primers designed for GBO44_RS03485 in Methods, GBO44_RS04865 in Results
T1 sequence (E0NE36 1-394): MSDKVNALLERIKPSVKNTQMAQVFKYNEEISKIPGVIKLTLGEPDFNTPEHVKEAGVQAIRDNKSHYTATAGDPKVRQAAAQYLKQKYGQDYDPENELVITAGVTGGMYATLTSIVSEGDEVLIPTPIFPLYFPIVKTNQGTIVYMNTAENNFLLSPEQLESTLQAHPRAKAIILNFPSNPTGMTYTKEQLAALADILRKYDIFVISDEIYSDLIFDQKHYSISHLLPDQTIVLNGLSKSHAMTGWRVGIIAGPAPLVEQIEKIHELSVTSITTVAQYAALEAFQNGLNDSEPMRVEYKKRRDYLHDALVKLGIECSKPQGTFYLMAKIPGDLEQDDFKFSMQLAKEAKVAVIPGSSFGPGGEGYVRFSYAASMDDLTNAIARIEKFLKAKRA

[2] = target: T1, Aat (recombinant His-tagged aminotransferase); test: coupled assay, glutamate formed measured with glutamate dehydrogenase/diaphorase; format: biochemical; conditions: amino donor; 5 mM amino acid, 10 mM alpha-ketoglutarate, 50 uM pyridoxal 5-phosphate, pH 5.5, 37 °C

Row | Compound | HPLC of amino acids formed [1] | coupled assay, glutamate formed measured with glutamate dehydrogenase/diaphorase [2]
1 | CCC(=O)C(=O)O [AKB, α-ketobutyrate] | AKB, pyruvate, KMTB, KIC, and PPA significantly preferred amino group acceptors to AKG | 
2 | CC(C)C[C@H](N)C(=O)O [Leu, L-leucine] |  | the enzyme transferred the amino group from leucine, methionine, AABA, alanine, cysteine, and phenylalanine
